Patent US5162354A, “3-halo-5-halomethyl-2-oxazolidinones and their use as microbicides” (Buckman Laboratories International, Inc., priority 1991, dated 1992)
≈ marks a conversion by molar mass, not a printed value. Where two headings read alike, the source gives them in different places.

Assays:
Format in all cases: cell-based
[1] = tested on: Chlorella pyrenoidosa; assay: Growth inhibiting activity against algae in Difco Algae Broth (Chlorella pyrenoidosa); conditions: Auxenochlorella pyrenoidosa, 672 h
Method: (§1) The growth inhibiting activity of the method of the invention against the three algae Chlorella pyrenoidosa, Chlorococcum hypnosporum and Phormidium inundatum was evaluated in Difco Algae Broth, the content of which was as follows:
(§2) Forty-gram portions of the algae medium were added to 250 mL Pyrex Erlenmeyer flasks fitted with loose metal caps and then sterilized. Each of the following substances was then added to the flasks in the order listed:
(§3) 1. Sterile algae medium as required to bring the total weight of the contents of each flask to 50 grams, after allowing for all subsequent additions specified below.
(§4) 2. A solution of one of compounds 1-4 or of a control agent to be evaluated in each test, to give the concentration desired in parts per million by weight.
(§5) 3. Chlorella pyrenoidosa, Chlorococcum hypnosporum and Phormidium inundatum in amounts sufficient to give excellent growth in the controls after 14 days. This was achieved by adding 1 milliliter of a 14 day old culture having luxuriant growth. The Chlorella pyrenoidosa culture was obtained from American Type Culture Collection No. 7516; Chlorococcum hypnosporum, from the University of TX at Austin; and Phormidium inundatum, WI No. 1093, from the University of WA.
(§6) As a control experiment, WSCP was used as a positive control agent. WSCP is a known toxicant which kills C. pyrenoidosa at 2 ppm, C. hypnosporum at 2ppm, and P. inundatum at 10 ppm. Control experiments were also carried out where no toxicants were employed. In the algicidal tests, the growth of algae in the nutrient medium is lush green and can be seen with the naked eye. Because the minimum inhibitory concentrations of the compounds in this example are those which result in complete inhibition, evaluation of the test results is not subjective.
(§7) After the inoculum of the test algae was added, the flasks were incubated at a temperature of 28°±2° C. under fluorescent illumination of 250 foot-candle intensity (8 hours light, 16 hours darkness) for a period adequate for growth in the controls (those portions of medium which contained no toxicant). Observations of growth were made at 7-day intervals. Minimum inhibitory concentrations are those that prevented complete growth after 28 days.

[2] = tested on: Enterobacter aerogenes; assay: Basal salts method, minimum inhibitory concentration against Enterobacter aerogenes; conditions: Klebsiella aerogenes, at least 80% kill
Method: Compounds 1-4 of Examples 3-6 of the present invention were tested by the basal salts method described in U.S. Pat. No. 2,881,070 at column 5, beginning at line 12 and extending to column 6, line 53. […] The minimum inhibitory concentrations are those in which a percentage kill of at least 80% is obtained.

[3] = tested on: Chlorococcum hypnosporum; assay: Growth inhibiting activity against algae in Difco Algae Broth (Chlorococcum hypnosporum); conditions: 672 h
Method: as §1, §2, §3, §4, §5, §6, §7

[4] = tested on: Aspergillus niger; assay: Growth inhibiting activity on the fungus Aspergillus niger; conditions: Aspergillus niger pH 6.0; completely prevented growth; read-out: Minimum inhibitory concentration against fungi
Method: The microorganism growth inhibiting activity of compounds 1-4 on the fungus Aspergillus niger was evaluated. The method is described in U.S. Pat. No. 4,945,109, column 5 beginning at line 47 to column 6, line 33. The disclosure of U.S. Pat. No. 4,945,109 is incorporated herein by reference.

[5] = tested on: Phormidium inundatum; assay: Growth inhibiting activity against algae in Difco Algae Broth (Phormidium inundatum); conditions: 672 h
Method: as §1, §2, §3, §4, §5, §6, §7

[6] = pH 7, read-out: Minimum inhibitory concentration against algae

| Structure (SMILES) | MIC [1, 6] | MIC ([2]; pH 6.0) | MIC ([2]; pH 8.0) | MIC [3, 6] | MIC [4] | MIC [5, 6] | MIC ([1]; C. pyrenoidosa, pH 7, 28 days, read-out: Minimum inhibitory concentration against algae) | MIC ([3]; C. hypnosporum, pH 7, 28 days, read-out: Minimum inhibitory concentration against algae) | MIC ([5]; P. inundatum, pH 7, 28 days, read-out: Minimum inhibitory concentration against algae) |
| --- | --- | --- | --- | --- | --- | --- | --- | --- | --- |
| O=C1OC(CCl)CN1Cl (stereo not drawn) [Compound 2, 3-Chloro-5-chloromethyl-2-oxazolidinone] | 1 µg/mL (≈ 5.88 µM) | 8 µg/mL | 10 µg/mL | 1 µg/mL (≈ 5.88 µM) | 128 µg/mL (≈ 753 µM) | 1 µg/mL (≈ 5.88 µM) |  |  |  |
| O=C1OC(CBr)CN1Br (stereo not drawn) [Compound 3, 3-Bromo-5-bromomethyl-2-oxazolidinone] |  | 2 µg/mL | 4 µg/mL |  | 100 µg/mL (≈ 386 µM) |  | 2 µg/mL (≈ 7.73 µM) | 8 µg/mL (≈ 30.9 µM) | 2 µg/mL (≈ 7.73 µM) |
| O=C1OC(CBr)CN1Cl (stereo not drawn) [Compound 4, 3-Chloro-5-bromomethyl-2-oxazolidinone] | 4 µg/mL (≈ 18.7 µM) | 10 µg/mL | 20 µg/mL | 8 µg/mL (≈ 37.3 µM) | 100 µg/mL (≈ 466 µM) | 8 µg/mL (≈ 37.3 µM) |  |  |  |
